How the values were obtained:
[1] = biological target: T1, HiBit-BRG1 fusion protein (Homo sapiens, UniProt P51532); experiment: HiBiT-BRG1 cell-based degradation assay (Nano-Glo HiBiT Lytic Detection, 24 h); details: stable HeLa cell line expressing HiBit-BRG1 and LgBit; for Dmax: read-out: BRG1 HiBit Degradation Maximum (%); for DC50: read-out: BRMG1 HiBit Degradation IC50
T1 construct: expressed in transfected cells
Method in brief: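 HeLa cells stably expressing HiBit-BRG1 and LgBit, treated 24 h with 3-fold dilutions (10 points, duplicate, 30 μM final top dose). Luminescence read after Nano-Glo HiBiT lytic reagent; % degradation scaled between DMSO (high) and 2 μM reference BRM/BRG1 degrader (low control).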

HiBit-BRM fusion protein = biological target: T2, HiBit-BRM fusion protein (Homo sapiens, UniProt P51531); experiment: HiBiT-BRM cell-based degradation assay (Nano-Glo HiBiT Lytic Detection, 24 h); details: stable HeLa cell line expressing HiBiT-BRM; for DC50: read-out: BRM HiBit Degradation IC50
T2 construct: expressed in transfected cells
Method in brief: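 A stable HeLa line expressing HiBiT-BRM was treated for 24 h with compound in a 10-point, 3-fold series (30 μM final top dose). Remaining HiBiT-BRM was read by lytic LgBiT complementation luminescence. % degradation was normalised to DMSO (high control) and 2 μM reference BRM/BRG1 degrader (low control).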

T2 sequence (P51531 whole entry, the tested form may be a part): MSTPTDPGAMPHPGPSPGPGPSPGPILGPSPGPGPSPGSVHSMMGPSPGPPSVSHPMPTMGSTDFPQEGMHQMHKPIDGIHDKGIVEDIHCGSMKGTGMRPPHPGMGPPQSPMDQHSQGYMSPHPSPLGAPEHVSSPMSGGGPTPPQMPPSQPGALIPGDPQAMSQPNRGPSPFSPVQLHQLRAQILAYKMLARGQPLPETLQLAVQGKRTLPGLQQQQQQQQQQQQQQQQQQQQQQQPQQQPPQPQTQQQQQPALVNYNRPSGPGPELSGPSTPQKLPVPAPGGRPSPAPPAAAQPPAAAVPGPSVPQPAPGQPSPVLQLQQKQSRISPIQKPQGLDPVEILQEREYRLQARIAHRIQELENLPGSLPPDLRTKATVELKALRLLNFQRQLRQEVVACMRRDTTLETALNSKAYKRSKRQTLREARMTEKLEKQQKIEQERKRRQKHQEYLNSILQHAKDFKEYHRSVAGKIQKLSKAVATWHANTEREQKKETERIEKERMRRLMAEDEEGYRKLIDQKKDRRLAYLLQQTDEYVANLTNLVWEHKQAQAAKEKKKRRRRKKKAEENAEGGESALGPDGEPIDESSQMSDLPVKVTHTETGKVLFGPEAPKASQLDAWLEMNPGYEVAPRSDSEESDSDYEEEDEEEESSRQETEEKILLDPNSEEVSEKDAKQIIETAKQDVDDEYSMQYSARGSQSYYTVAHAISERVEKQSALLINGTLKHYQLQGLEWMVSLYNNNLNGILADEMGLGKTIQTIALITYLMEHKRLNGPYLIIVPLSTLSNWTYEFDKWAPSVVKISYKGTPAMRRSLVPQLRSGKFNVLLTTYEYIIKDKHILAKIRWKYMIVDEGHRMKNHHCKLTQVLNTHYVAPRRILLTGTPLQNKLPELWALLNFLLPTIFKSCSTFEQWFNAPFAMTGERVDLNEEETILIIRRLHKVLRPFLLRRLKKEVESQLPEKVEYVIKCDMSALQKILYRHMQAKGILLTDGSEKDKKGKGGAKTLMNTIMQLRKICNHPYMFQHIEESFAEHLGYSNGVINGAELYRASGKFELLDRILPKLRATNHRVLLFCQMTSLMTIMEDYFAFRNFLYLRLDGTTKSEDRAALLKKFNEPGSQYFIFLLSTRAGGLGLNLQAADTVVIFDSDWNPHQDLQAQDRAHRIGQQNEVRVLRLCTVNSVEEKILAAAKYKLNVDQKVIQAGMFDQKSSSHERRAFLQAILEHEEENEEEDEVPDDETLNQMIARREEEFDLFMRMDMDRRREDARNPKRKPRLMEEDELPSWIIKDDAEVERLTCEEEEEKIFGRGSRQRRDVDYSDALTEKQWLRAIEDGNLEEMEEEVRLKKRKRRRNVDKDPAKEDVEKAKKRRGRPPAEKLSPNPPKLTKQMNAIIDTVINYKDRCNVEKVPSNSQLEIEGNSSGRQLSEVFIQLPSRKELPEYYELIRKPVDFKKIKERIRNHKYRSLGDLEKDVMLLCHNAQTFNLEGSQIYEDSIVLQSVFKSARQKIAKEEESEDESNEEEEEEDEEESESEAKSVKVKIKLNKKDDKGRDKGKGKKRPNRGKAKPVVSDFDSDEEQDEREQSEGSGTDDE
T1 sequence (P51532 whole entry, the tested form may be a part): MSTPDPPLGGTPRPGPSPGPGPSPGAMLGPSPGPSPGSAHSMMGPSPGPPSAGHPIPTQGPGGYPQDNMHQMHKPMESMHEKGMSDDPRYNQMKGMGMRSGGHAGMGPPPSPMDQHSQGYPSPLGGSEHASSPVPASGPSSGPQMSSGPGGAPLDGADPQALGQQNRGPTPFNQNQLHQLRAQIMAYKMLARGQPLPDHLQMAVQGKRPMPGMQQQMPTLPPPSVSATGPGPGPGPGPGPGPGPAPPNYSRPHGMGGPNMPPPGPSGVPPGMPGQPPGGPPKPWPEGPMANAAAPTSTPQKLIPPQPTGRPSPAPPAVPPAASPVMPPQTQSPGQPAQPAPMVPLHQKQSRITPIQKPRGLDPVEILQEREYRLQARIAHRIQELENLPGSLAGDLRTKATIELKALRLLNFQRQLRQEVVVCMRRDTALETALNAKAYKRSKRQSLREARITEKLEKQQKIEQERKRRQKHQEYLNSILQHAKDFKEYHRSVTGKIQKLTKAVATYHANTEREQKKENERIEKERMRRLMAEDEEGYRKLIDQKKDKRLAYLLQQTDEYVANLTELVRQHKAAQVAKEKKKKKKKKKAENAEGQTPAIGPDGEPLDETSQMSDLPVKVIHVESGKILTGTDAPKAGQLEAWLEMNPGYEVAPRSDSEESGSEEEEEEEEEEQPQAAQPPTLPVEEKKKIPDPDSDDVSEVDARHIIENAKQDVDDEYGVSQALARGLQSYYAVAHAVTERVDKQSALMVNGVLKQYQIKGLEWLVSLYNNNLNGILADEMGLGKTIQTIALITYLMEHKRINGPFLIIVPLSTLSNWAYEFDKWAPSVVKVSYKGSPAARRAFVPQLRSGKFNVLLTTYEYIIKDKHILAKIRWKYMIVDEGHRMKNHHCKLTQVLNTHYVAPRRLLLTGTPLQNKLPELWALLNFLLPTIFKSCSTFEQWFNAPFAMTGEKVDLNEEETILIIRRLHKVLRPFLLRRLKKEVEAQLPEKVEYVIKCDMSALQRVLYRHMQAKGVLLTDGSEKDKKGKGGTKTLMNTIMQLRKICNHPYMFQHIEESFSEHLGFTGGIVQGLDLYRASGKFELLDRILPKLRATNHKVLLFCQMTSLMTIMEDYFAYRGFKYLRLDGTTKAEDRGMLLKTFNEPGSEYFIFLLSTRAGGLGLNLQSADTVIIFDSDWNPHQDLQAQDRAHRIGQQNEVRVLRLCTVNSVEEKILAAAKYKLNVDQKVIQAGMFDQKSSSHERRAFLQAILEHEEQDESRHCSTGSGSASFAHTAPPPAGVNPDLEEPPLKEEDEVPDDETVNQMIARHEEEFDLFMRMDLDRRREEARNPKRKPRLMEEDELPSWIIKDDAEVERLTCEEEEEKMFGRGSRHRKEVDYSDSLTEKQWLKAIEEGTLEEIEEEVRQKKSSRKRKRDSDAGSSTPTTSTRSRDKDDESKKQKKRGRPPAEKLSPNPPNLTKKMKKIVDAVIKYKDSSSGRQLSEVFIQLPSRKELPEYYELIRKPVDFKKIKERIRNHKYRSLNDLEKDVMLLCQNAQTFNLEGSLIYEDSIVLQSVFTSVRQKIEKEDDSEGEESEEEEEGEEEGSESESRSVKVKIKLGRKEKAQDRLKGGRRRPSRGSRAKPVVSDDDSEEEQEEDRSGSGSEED

Compound	Dmax [1] [%]	DC50 [1] [nM]	DC50 (HiBit-BRM fusion protein) [nM]	BRM HiBit Degradation Maximum (%) (HiBit-BRM fusion protein)
Cc1ncsc1-c1ccc([C@H](C)NC(=O)[C@@H]2C[C@@H](O)CN2C(=O)[C@@H](c2cc(-c3ccc(N4CCC(c5sc6nnc(-c7ccccc7O)cc6c5C)CC4)cc3)no2)C(C)C)cc1 [Compound 26, (2S,4R)-4-hydroxy-1-((R)-2-(3-(4-(4-(3-(2-hydroxyphenyl)-5-methylthieno[2,3-c]pyridazin-6-yl)piperidin-1-yl)phenyl)isoxazol-5-yl)-3-methylbutanoyl)-N-((S)-1-(4-(4-methylthiazol-5-yl)phenyl)ethyl)pyrrolidine-2-carboxamide]	< 50	> 1000	< 10	A (“A” indicates maximum degradation ≥75%)
Cc1ncsc1-c1ccc([C@H](C)NC(=O)[C@@H]2C[C@@H](O)CN2C(=O)[C@@H](c2cc(-c3cnc(N4CCC(c5cc6cc(-c7ccccc7O)nnc6s5)CC4)nc3)no2)C(C)C)cc1 [Compound 54, (2S,4R)-4-hydroxy-1-((R)-2-(3-(2-(4-(3-(2-hydroxyphenyl)thieno[2,3-c]pyridazin-6-yl)piperidin-1-yl)pyrimidin-5-yl)isoxazol-5-yl)-3-methylbutanoyl)-N-((S)-1-(4-(4-methylthiazol-5-yl)phenyl)ethyl)pyrrolidine-2-carboxamide]	< 50	> 1000	< 10	A (“A” indicates maximum degradation ≥75%)
Cc1ncsc1-c1ccc([C@H](C)NC(=O)[C@@H]2C[C@@H](O)CN2C(=O)[C@@H](c2cc(-c3ccc(N4CCC(c5cc6cc(-c7ccccc7O)nnc6s5)CC4)nn3)no2)C(C)C)cc1 [Compound 33, (2S,4R)-4-hydroxy-1-((R)-2-(3-(6-(4-(3-(2-hydroxyphenyl)thieno[2,3-c]pyridazin-6-yl)piperidin-1-yl)pyridazin-3-yl)isoxazol-5-yl)-3-methylbutanoyl)-N-((S)-1-(4-(4-methylthiazol-5-yl)phenyl)ethyl)pyrrolidine-2-carboxamide]	< 50	> 1000	> 10	A (“A” indicates maximum degradation ≥75%)

Further lines, with some results ahead:

Dmax [1] [%]	DC50 [1] [nM]	DC50 (HiBit-BRM fusion protein) [nM]	Compound	BRM HiBit Degradation Maximum (%) (HiBit-BRM fusion protein)
> 75	> 10	< 10	Cc1ncsc1-c1ccc([C@H](C)NC(=O)[C@@H]2C[C@@H](O)CN2C(=O)[C@@H](c2cc(N3CC4(CC(c5cc6cc(-c7ccccc7O)nnc6s5)C4)C3)no2)C(C)C)cc1 (single isomer, unassigned) [Compound 1]	A (“A” indicates maximum degradation ≥75%)
> 50	> 10	< 10	Cc1ncsc1-c1ccc([C@H](C)NC(=O)[C@@H]2C[C@@H](O)CN2C(=O)[C@@H](c2cc(N3CCC(c4cnc(N5CCC(c6sc7nnc(-c8ccccc8O)cc7c6C)CC5)nc4)CC3)no2)C(C)C)cc1 (single isomer, unassigned) [Compound 60]	A (“A” indicates maximum degradation ≥75%)

From US20250304596A1, “PYRAZINE DERIVATIVES AND USES THEREOF” (FOGHORN THERAPEUTICS INC., priority 2022, published 2025)
